This assay deals with T1, human orexin-2 receptor (OX2R) (Homo sapiens, UniProt O43614).
T1 construct: expressed in transfected cells
T1 sequence (O43614 1-444): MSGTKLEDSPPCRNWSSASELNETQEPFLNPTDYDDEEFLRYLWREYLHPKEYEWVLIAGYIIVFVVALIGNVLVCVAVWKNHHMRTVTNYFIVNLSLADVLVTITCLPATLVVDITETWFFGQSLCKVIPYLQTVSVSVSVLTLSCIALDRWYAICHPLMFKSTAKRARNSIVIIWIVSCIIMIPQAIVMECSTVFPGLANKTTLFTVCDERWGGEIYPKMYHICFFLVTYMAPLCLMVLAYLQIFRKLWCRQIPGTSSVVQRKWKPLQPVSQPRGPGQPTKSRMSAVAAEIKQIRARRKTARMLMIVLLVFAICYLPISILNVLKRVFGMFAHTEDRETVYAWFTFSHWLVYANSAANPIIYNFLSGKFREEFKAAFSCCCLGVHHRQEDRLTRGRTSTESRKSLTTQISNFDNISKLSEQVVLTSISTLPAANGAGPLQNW
In words: Human OX2R IP1 assay. The following applies: T-Rex CHO cells stably overexpressing human OX2R; inositol monophosphate (IP1) accumulation, 1 hr at 37 degrees C; mean EC50. In kind it is cell-based. As to the method: T-Rex CHO cells stably overexpressing the human orexin-2 receptor (OX2R) were induced overnight with 1 μg/mL of doxycycline in a T225 flask. 24 hours post induction, cells were lifted with accutase and plated into a 384-well proxy plate at 30,000 cells/well. Cells were then treated with different test compounds in 1× stimulation buffer containing 10 mM Hepes, 1 mM CaCl2), 0.5 mM MgCl2, 4.2 mM KCl, 146 mM NaCl, 5.5 mM glucose, and 50 mM LiCl, pH 7.4, for 1 hr at 37 degrees C. Following incubation, the reaction was terminated by the addition of detection mix, which is composed of IP1-d2 and anti-IP1-cryptate diluted in lysis buffer as well as 1× stimulation buffer. The plates were allowed to incubate for 1 hour at room temperature and were then read in the EnVision® multimode plate reader, measuring inositol phosphate levels.
Cisbio IP1 is a cell-based functional assay quantifying the accumulation of inositol monophosphate (IP), a metabolite released as a result of orexin 2 receptor activation through the phospholipase C-Gq signaling pathway. This is a competitive immunoassay in which the IP1 produced by the cells upon receptor activation competes with the IP1 analog coupled to the d2 fluorophore (acceptor) for binding to an anti-IP1 monoclonal antibody labeled with Eu cryptate (donor). The measured HTRF-FRET based signal is inversely proportional to the IP1 concentration produced.
The EC50 values reported in Table 2 were obtained according to the human OX2R IP1 assay described above. Data are the mean EC50 values ±S.E.M.

As usually defined, the EC50 is the midpoint of the concentration-response curve. High values mean a need for much substance, low ones an effect from little substance. In the case of `CS(=O)(=O)N[C@H]1CCCN2C(=O)COc3cc4[nH]ncc4cc3[C@H]3CC[C@H](CC3)OC[C@@H]12` [Compound 10], the concentration for a half-maximal effect (EC50) was < 100 nM.
Compound `O=C1COc2cc3[nH]ncc3cc2C2CCC(CC2)OCC2[C@@H](NS(=O)(=O)C(F)(F)F)CCN12` (stereo partly drawn) [Compound 5] gave an EC50 of 100 to 1000 nM.
In turn, `CS(=O)(=O)N[C@H]1CCN2C(=O)COc3cc4[nH]ncc4cc3[C@H]3CC[C@H](CC3)OC[C@@H]12` [Compound 6] gave an EC50 of 100 to 1000 nM.

The values are drawn from patent publication US20240182491A1, “SUBSTITUTED FUSED BICYCLIC MACROCYCLIC COMPOUNDS AND RELATED METHODS OF TREATMENT” (Alkermes, Inc., priority 2021, published 2024).
